Results as given in patent publication US10947503B2, “Method for modifying T cell population” (International Institute of Cancer Immunology, Inc., priority 2014, dated 2021).

Experiments:
[1] = tested on: human CD4+CD45RO+ T cells; assay: Modulation of T cell differentiation by RAR agonists and antagonists; assay type: cell-based; details: 8 days culture, vs DMSO
Description: Human CD4^+CD45RO^+ T cells were stimulated with an anti-CD3/CD28 antibody and IL-2, and cultured in the presence of DMSO as a control, or various RAR agonists (FIG. 30) or RAR antagonists (FIG. 31) for 8 days.

[2] = tested on: human CD4+CD45RO+ T cells; assay: Resistance to apoptosis after anti-Fas antibody (7C11) stimulation; assay type: cell-based; details: 8 days culture, then anti-Fas antibody
Method: Human CD4^+CD45RO^+ T cells were cultured in the presence of DMSO (control), retinoic acid or an RAR antagonist (LE540) for 8 days, and then stimulated with an anti-Fas antibody (7C11). The proportion of apoptotic cells and the proportion of living cells were determined and analyzed. As a result, the apoptotic cells were increased and the living cells were decreased by enhancing the differentiation of cells by retinoic acid. In contrast, when the differentiation was suppressed by the RAR antagonist, the apoptotic cells were decreased and the living cells were increased (FIG. 20).

[3] = tested on: human CD4+CD45RO+ T cells; assay: Division ability and proliferation ability of memory T cells after re-stimulation; assay type: cell-based; details: 8 days culture, re-stimulated with anti-CD3/CD28 antibody and IL-2, or IL-7
Method: Human CD4^+CD45RO^+ T cells were stimulated with an anti-CD3/CD28 antibody, cultured in the presence of DMSO (control), retinoic acid or an RAR antagonist (LE540) for 8 days, re-stimulated with an anti-CD3/CD28 antibody and IL-2, or IL-7, and cultured. The division ability and proliferation ability of the T cells were evaluated. For evaluation of the division ability, Cell Trace (trade name) Violet Cell Proliferation Kit (manufactured by Life Technologies) was used. As a result, when the differentiation of T cells was enhanced by retinoic acid, both the division ability and the proliferation ability were decreased, whereas when the differentiation was suppressed by the RAR antagonist, both the division ability and the proliferation ability were increased (FIG. 21).

[4] = tested on: human CD4+CD45RO+ T cells; assay: Ability to form memory T cell population after re-stimulation; assay type: cell-based; details: 8 days culture, re-stimulated and cultured for 7 days
Description: Human CD4^+CD45RO^+ T cells were stimulated with an anti-CD3/CD28 antibody, cultured in the presence of DMSO (control), retinoic acid or an RAR antagonist (LE540) for 8 days, and re-stimulated and cultured with an anti-CD3/CD28 antibody and IL-2, or IL-7 for 7 days. The subsets of the T cells were identified.

[5] = tested on: human CD4+ T cells transferred into NOG mouse; assay: Reformation ability of cultured T cells in body of immunodeficient mouse; assay type: in vivo; details: T cells in spleen 4 weeks after transfer
Method: Human CD4^+CD45RO^+ T cells were stimulated with an anti-CD3/CD28 antibody, cultured in the presence of DMSO (control), retinoic acid or an RAR antagonist (LE540) for 8 days, and then transferred together with human PBMC from which T cells were removed into the body of an immunodeficient mouse lacking T cells, B cells and NK cells (NOG mouse). After 4 weeks, T cells in the spleen of the mouse were analyzed.

[6] = tested on: CD4+ T cells with human WT1332-specific TCR gene; assay: WT1332-specific TCR-introduced CD4+ T cells: memory proportion and proliferation on re-stimulation; assay type: cell-based
Method: CD4^+ T cells into which a human WT1332-specific TCR gene was introduced were stimulated with human WT1332, and cultured in the presence of DMSO (control), retinoic acid or an RAR antagonist (LE540). As a result, when the T cells were cultured in the presence of the RAR antagonist, the proportion of memory-type CD4^+ T cells was increased (FIG. 24). Further, when the T cell population cultured in the presence of the RAR antagonist was re-stimulated with PBMC which had been pulsed with human WT1332, and cultured (T cell: 30,000 cells/well; PBMC: 100,000 cells/well; […]

[7] = tested on: terminal effector fraction of human WT1332-specific CD4+ T cell clone; assay: Induction of memory T cells from terminal effector T cells; assay type: cell-based
Description: A terminal effector fraction contained in a human WT1332-specific CD4+ T cell clone derived from a single cell was stimulated with dendritic cells which had been pulsed with human WT1332, and cultured in the presence of DMSO (control), retinoic acid or an RAR antagonist (LE540) for 7 days. Then, the cells were labelled with CFSE, re-stimulated with dendritic cells which had been pulsed with human […], and further cultured in the presence of DMSO (control), retinoic acid or an RAR antagonist (LE540). After culturing for 4 or 6 days, the cells were subjected to an FACS analysis and a ^3H-thymidine incorporation assay (cell proliferation assay).

[8] = tested on: Tumor cells expressing both WT1 protein and luciferase; assay: Anti-tumor immunity induction with human WT1 peptide and RAR antagonist in NOG mice; assay type: in vivo, mouse; details: for survival period: intraperitoneal, compared with control (DMSO)
Method: Tumor cells expressing both WT1 protein and luciferase were subcutaneously implanted into a ventral part of NOD/Shi-scid, IL-2Rγnull mice (NOG mice). Three days after the implantation, 10^4 human WT1332-specific CD4^+ T cells (GPP positive) were injected intravenously (day 0). Eight hours after the intravenous injection, DMSO (control), retinoic acid or LE540 was administered intraperitoneally. One day after the intravenous injection, CD3^+ T cells were removed, and 2×10^6 human peripheral blood mononuclear cells which had been pulsed with the human WT1332 peptide were injected intravenously (day 1). Then, a survival period was observed. In addition, the amount of tumor was determined every week by administering luciferin which was a substrate for luciferase and measuring the intensity of emission induced by luciferase from outside the body.

[9] = tested on: human CD4+CD45RO+ T cells; assay: Enhancement of T cell differentiation by retinoic acid; assay type: cell-based; details: vs DMSO; stimulation with IL-2, anti-CD3/CD28 antibody, or both
Description: Human CD4^+CD45RO^+ T cells were stimulated by various methods (IL-2, anti-CD3/CD28 antibody, and anti-CD3/CD28 antibody and IL2), and cultured in the presence of DMSO (control) or all-trans retinoic acid (hereinafter retinoic acid used in all Examples described below is all-trans retinoic acid). As a result, in the cell population cultured in the presence of retinoic acid, the proportion of central memory cells (upper right in a graph) was decreased, and the proportion of terminal effector cells (left lower in a graph) was increased (FIG. 19).

[10] = tested on: human CD4+CD45RO+ T cells; assay: Culture with anti-CD3, anti-CD28, IL-2 and retinol for a week: cell number and intracellular cytokine assay (IFN-γ); assay type: cell-based; details: various concentrations of retinol, one week; retinol concentration-dependent
Method: The RDH10-targeting shRNA (sh #10-2, SEQ ID NO:18), or an shRNA targeting luciferase (sh-luc, SEQ ID NO:20) as a control was introduced into human CD4^+CD45RO^+ T cells using a lentivirus vector. In the same way, a lentivirus vector in which an RDH10 gene was incorporated was introduced into human CD4^+CD45RO^+ T cells to produce RDH10 high-expression T cells.
These cells were cultured in the presence of an anti-CD3 antibody, an anti-CD28 antibody and IL-2 together with various concentrations of retinol (all-trans type) for a week. Then, the number of cells was measured and at the same time, the frequency of cells producing IFN-γ was determined by an intracellular cytokine assay.

[11] = tested on: human CD4+CD45RO+ T cells; assay: Suppression of RDH10 expression by shRNA: composition of T cell population; assay type: cell-based; details: compared with T cell population expressing control shRNA
Description: A construct to express an shRNA targeting retinol dehydrogenase 10 and consisting of a sequence set forth in SEQ ID NO:18 (RDH10-targeting shRNA) was introduced into human CD4^+CD45RO^+ T cells. Specifically, using a lentivirus vector system, packaging cells (293T cell line) were co-transfected with a vector in which a DNA consisting of a nucleotide sequence of SEQ ID NO:19 was incorporated into a cloning site and a packaging vector to produce a recombinant virus, and the human CD4^+CD45RO^+ T cells were infected with the recombinant virus. Integration of the shRNA expression construct into a chromosome was confirmed based on the expression of GFP as a reporter which was located downstream of the shRNA expression construct. In the T cell population in which the RDH10-targeting shRNA was expressed by such a method, the proportion of terminal effector cells ([…]) was decreased and the proportion of central memory cells (CD127^+, CD62L^+) was increased, as compared with a T cell population in which a control shRNA (SEQ ID NO:20) was expressed by the same method (FIG. 2).

CCCCCCCCc1ccc(-c2ccc(C(=O)O)cc2)cc1 [AC55649]
expression of CD62L [1]: decreased
proportion of memory T cells (CD62L+CD127+ cells) [1]: decreased

CC1(C)CCC(C)(C)c2cc(C(=O)Nc3ccc(C(=O)O)cc3)ccc21 [AM580]
expression of CD62L [1]: decreased
proportion of memory T cells (CD62L+CD127+ cells) [1]: decreased

CC1(C)CC=C(c2cnc3ccccc3c2)c2cc(C(=O)Nc3ccc(C(=O)O)cc3)ccc21 [BMS195614]
expression of CD62L [1]: increased
proportion of memory T cells (CD62L+CD127+ cells) [1]: increased

O=C(O)c1ccc2cc(-c3ccc(O)c(C45CC6CC(CC(C6)C4)C5)c3)ccc2c1 [CD437]
expression of CD62L [1]: decreased
proportion of memory T cells (CD62L+CD127+ cells) [1]: decreased

CN1c2cc3c(cc2N=C(c2ccc(C(=O)O)cc2)c2ccccc21)C(C)(C)CCC3(C)C [LE135]
expression of CD62L [1]: increased
proportion of memory T cells (CD62L+CD127+ cells) [1]: increased

CN1c2cc3c(cc2N=C(c2ccc(C(=O)O)cc2)c2ccc4ccccc4c21)C(C)(C)CCC3(C)C [LE540]
apoptotic cells [2]: decreased
living cells [2]: increased
division ability of T cells [3]: increased
proliferation ability of T cells [3]: increased
appearance frequency of memory T cells [4]: high frequency
ability to proliferate in the body of the immunodeficient mouse [5]: high ability to proliferate
differentiation state of T cells in the mouse [5]: undifferentiated
proliferation ability after re-stimulation with WT1332-pulsed PBMC ([6]; compared with cells cultured with DMSO or retinoic acid, no IL-2): high proliferation ability
proportion of memory-type CD4+ T cells ([6]; stimulated with human WT1332): increased
induction of central memory CD4+ T cells from terminal effector CD4+ T cells ([7]; LE540): induced again
generation of memory T cells having high division ability and high proliferation ability ([7]; evaluation after re-stimulation): generated
tumor size (-fold increase relative to day 0) ([8]; day 21, compared with DMSO group and retinoic acid group): significantly small
survival period [8]: extended
expression of CD62L [1]: increased
proportion of memory T cells (CD62L+CD127+ cells) [1]: increased

CC1(C)CCC(C)(C)c2cc(C3(c4ccc5cc(C(=O)O)ccc5c4)SCCS3)ccc21 [MM11253]
expression of CD62L [1]: increased
proportion of memory T cells (CD62L+CD127+ cells) [1]: increased

CC1=C(/C=C/C(C)=C/C=C/C(C)=C/C(=O)O)C(C)(C)CCC1 [retinoic acid, all-trans retinoic acid]
proportion of central memory cells [9]: decreased
proportion of terminal effector cells [9]: increased
apoptotic cells [2]: increased
living cells [2]: decreased
division ability of T cells [3]: decreased
proliferation ability of T cells [3]: decreased
appearance frequency of memory T cells [4]: low
survival period [8]: shortened
expression of CD62L [1]: decreased
proportion of memory T cells (CD62L+CD127+ cells) [1]: decreased

CC1=C(/C=C/C(C)=C/C=C/C(C)=C/CO)C(C)(C)CCC1 [retinol, all-trans retinol]
IFN-γ producing cells [10]: increased
number of cells [10]: increased

RDH10-targeting shRNA: shRNA targeting retinol dehydrogenase 10, sequence SEQ ID NO:18, expressed from a lentivirus vector (GUACACUUCUGGGCCACUGAACUUCCUGUCAUUUAGUGGUCCAGAAGUGUGC)
proportion of central memory cells (CD127+, CD62L+) [11]: increased
proportion of terminal effector cells [11]: decreased
